This is an account of results in article PMC12605127, “Cyclopropane xenolipids resemble monounsaturated fatty acids and modulate peroxisome proliferator-activated receptors” (Journal of Lipid Research, 2025).

Like-named read-outs stand apart in the source and are kept apart here.

One assay addresses T1, human PPARδ (Homo sapiens, UniProt Q03181).
T1 construct: purchased ThermoFisher Scientific PV4685
T1 sequence (Q03181 211-439 limits assumed): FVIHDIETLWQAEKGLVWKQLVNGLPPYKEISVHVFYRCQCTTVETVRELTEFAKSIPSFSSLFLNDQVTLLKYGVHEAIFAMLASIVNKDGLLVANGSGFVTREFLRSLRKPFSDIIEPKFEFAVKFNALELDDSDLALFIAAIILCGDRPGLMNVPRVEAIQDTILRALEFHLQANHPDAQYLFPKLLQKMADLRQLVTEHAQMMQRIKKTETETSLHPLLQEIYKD
In words: LanthaScreen TR-FRET coactivator recruitment assay, PPARδ LBD (C33 peptide). Format: biochemical. The conditions noted are these: for Emax: read-out: Emax, maximum efficacy, PPARδ; for EC50: TR-FRET coactivator recruitment, human PPARδ LBD, read-out: EC50, half maximal effective concentration, PPARδ. (In general: TR-FRET usually uses a lanthanide donor and a delayed reading to cut background.)

The target of another assay is T2, human PPARα (Homo sapiens, UniProt Q07869).
T2 construct: purchased ThermoFisher Scientific PV4684
T2 sequence (Q07869 239-466 limits assumed): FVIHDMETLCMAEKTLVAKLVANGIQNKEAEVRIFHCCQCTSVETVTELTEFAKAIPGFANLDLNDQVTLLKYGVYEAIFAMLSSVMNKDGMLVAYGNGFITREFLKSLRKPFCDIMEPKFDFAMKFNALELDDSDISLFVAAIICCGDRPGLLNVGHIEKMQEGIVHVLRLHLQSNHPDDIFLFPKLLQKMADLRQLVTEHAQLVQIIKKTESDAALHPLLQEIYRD
In words: LanthaScreen TR-FRET coactivator recruitment assay, PPARα LBD (PGC1α peptide). The class given is biochemical. As to conditions: for Emax: read-out: Emax, maximum efficacy, PPARα; for EC50: TR-FRET coactivator recruitment, human PPARα LBD, read-out: EC50, half maximal effective concentration, PPARα.

Another assay deals with Angptl4. In words: Angptl4 mRNA expression (qPCR) in 3T3-L1 preadipocytes, without and with PPAR antagonists. The class given is cell-based, murine. The conditions noted are these: agonist and antagonist both 10 μM, 3T3-L1 cells.
In the next assay the target is PPARγ. Also noted: method as in PMID 32909075. The conditions noted are these: lowest Kd among nine lipids tested in vitro; cited from earlier work.
[1] abbreviates: % relative to agonist control GW501516 at the highest concentration, 95% confidence intervals in parentheses.
Setting [2] is: 95% confidence intervals in parentheses.
Setting [3] is: % relative to agonist control GW7647 at the highest concentration, 95% confidence intervals in parentheses.

Consider `CCCCCCCCCCCCCCCCC(=O)O` [C17, Heptadecanoic acid], for which the Emax (usually the greatest response seen or fitted, relative to the assay's reference) was found to be 41.3% at human PPARδ (setting [1]) and 58.9% on human PPARα (setting [3]). The EC50 at human PPARδ (setting [2]) is 22.3 µM; on human PPARα (setting [2]), 5.04 µM.
Taken in the same sequence, the figures for `CCCCCC/C=C\CCCCCCCCCC(=O)O` [C18:1 cis-11, (11Z)-octadec-11-enoic acid] were 43.5%, 45.2%, 22 µM and 3.5 µM.
Consider `CCCCCCCC/C=C\CCCCCCCC(=O)O` [C18:1 cis-9, (9Z)-octadec-9-enoic acid], for which the figures for the EC50 on human PPARδ (setting [2]) and on human PPARα (setting [2]) were 18.5 µM and 0.91 µM, respectively. Besides, the figures for the Emax on human PPARδ and at human PPARα were 51.9% and 52%, respectively.
With `CCC[C@@H]1C[C@@H]1CCCCCCCCCC(=O)O` [C15Δ1 cis-11, (11S,12R)-11,12-methylenepentadecanoic acid], the figures for the maximal response (Emax) on human PPARδ (setting [1]) and at human PPARα (setting [3]) were 14.9% and 26.3%, respectively. Also, the EC50 on human PPARδ (setting [2]) worked out at 25.6 µM; on human PPARα (setting [2]), 14.1 µM.
For `CCCCCC[C@@H]1C[C@@H]1CCCCCCCC(=O)O` [C16Δ1 cis-9, (9S,10R)-9,10-methylenehexadecanoic acid] the same measures were 58.1%, 62.3%, 22 µM and 12.2 µM.
For the compound `CC(C)(Sc1ccc(CCN(CCCCC2CCCCC2)C(=O)NC2CCCCC2)cc1)C(=O)O` [GW7647], on human PPARα (setting [3]), the Emax worked out at 86.6%.
Consider `CCC(=O)NC[C@H](Cc1ccc(OCCc2nc(-c3ccccc3)oc2C)cc1)N/C(C)=C\C(=O)c1ccc(C(F)(F)F)cc1` [GW6471], for which, in the assay on Angptl4, the “Reduction of PPAR agonist-mediated Angptl4 expression by the antagonist” value (from here on “Reduction”) is “did not inhibit”.
Turning to `CCCCCCCC[C@@H]1C[C@@H]1CCCCCCCC(=O)O` [C18Δ1 cis-9, (9S,10R)-9,10-methyleneoctadecanoic acid], at human PPARδ (setting [1]), the “Emax, maximum efficacy, PPARδ” value is given as 73.56 (65.9, 81.2) b %. Besides, the maximal response (Emax) at human PPARδ (setting [1]) was around 74%; on human PPARα (setting [3]), 51.4%. In addition, the EC50 came out at 27.1 µM at human PPARδ (setting [2]) and 5.23 µM on human PPARα (setting [2]).
With `CCC/C=C\CCCCCCCCCC(=O)O` [C15:1 cis-11, (11Z)-pentadec-11-enoic acid], the Emax on human PPARδ (setting [1]) was found to be 18.9%; on human PPARα (setting [3]), 26.6%. The values for the EC50 at human PPARδ (setting [2]) and on human PPARα (setting [2]) were 25.7 µM and 12.8 µM, respectively.
With `CCCCCCCCCCCCCCCC(=O)O` [C16, Hexadecanoic acid], the maximal response (Emax) at human PPARα (setting [3]) stood at 52.6%. Moreover, on human PPARα (setting [2]), the EC50 amounted to 5.43 µM.
Take `CCCCCC[C@@H]1C[C@@H]1CCCCCCCCCC(=O)O` [C18Δ1 cis-11, (11S,12R)-11,12-methyleneoctadecanoic acid]: at human PPARδ (setting [1]), the “Emax, maximum efficacy, PPARδ” value is listed as 57.03 (52.5, 61.6) a %. For the same compound, the Emax worked out at 57% on human PPARδ (setting [1]) and 54.7% at human PPARα (setting [3]). Moreover, the EC50 at human PPARδ (setting [2]) was 25.8 µM; at human PPARα (setting [2]) it was 7.65 µM. In addition, the Kd (usually the concentration at which binding is half-saturated) at PPARγ is around 100 µM.
As to `CCCCCCCCCCCCCCCCCC(=O)O` [C18, Octadecanoic acid], the Emax on human PPARα (setting [3]) is 55.9%. Also, the EC50 on human PPARα (setting [2]) stood at 6.37 µM.
As for `O=C(NCCS(=O)(=O)c1ccc(C(F)(F)F)cn1)c1ccc(Cl)cc1` [GSK3787], the “Reduction” value in the assay on Angptl4 was around 50%.
As to `CCC/C=C\CCCCCCCCCCCC(=O)O` [C17:1 cis-13, (13Z)-heptadec-13-enoic acid], the Emax at human PPARδ (setting [1]) was 30.6%; on human PPARα (setting [3]), 70%. Further, the figures for the EC50 on human PPARδ (setting [2]) and on human PPARα (setting [2]) were 17.8 µM and 4.7 µM, respectively. In addition, the “Emax, maximum efficacy, PPARα” value on human PPARα (setting [3]) is recorded as 69.86 (43, 96.7) a %.
As for `CCCCCCCCCCCCCCC(=O)O` [C15, Pentadecanoic acid], the figures for the Emax at human PPARδ (setting [1]) and on human PPARα (setting [3]) were 23.7% and 36.8%, respectively. In addition, the figures for the EC50 on human PPARδ (setting [2]) and at human PPARα (setting [2]) were 25.6 µM and 9.6 µM, respectively.
Regarding `O=C(Nc1ccncc1)c1cc([N+](=O)[O-])ccc1Cl` [T0070907], the “Reduction” value with Angptl4 is around 50%.
Take `CCCCCC/C=C\CCCCCCCC(=O)O` [C16:1 cis-9, (9Z)-hexadec-9-enoic acid]: the Emax on human PPARδ (setting [1]) was found to be 39.5%; at human PPARα (setting [3]), 59.1%. In addition, the EC50 on human PPARδ (setting [2]) was 26.4 µM; on human PPARα (setting [2]), 2.13 µM.
On to `CCC[C@@H]1C[C@@H]1CCCCCCCCCCCC(=O)O` [C17Δ1 cis-13, (13S,14R)-13,14-methyleneheptadecanoic acid], for which the Emax came to 37.1% on human PPARδ (setting [1]) and 65% at human PPARα (setting [3]). Besides, the results for the EC50 at human PPARδ (setting [2]) and at human PPARα (setting [2]) were 26.8 µM and 4.12 µM, respectively. In addition, the “Emax, maximum efficacy, PPARα” value on human PPARα (setting [3]) is reported as 65.01 (52.5, 77.5) a %.
